“Also recorded” adds a separate entry of the source.
Legend:
SAA = experiment: SAA-induced HMGB1 release in macrophages (Western blotting); type: cell-based; conditions: in vitro
Method: FIG. 5A-5C. Epitope mapping of SAA-specific antibodies using a peptide library. A, Sequence of synthetic SAA peptides (SEQ ID NO:19). […] Macrophages were stimulated with SAA in the absence or presence of different (R1, R2, R3) IgGs, and HMGB1 release was assayed by Western blotting. C, Epitope mapping by dot blot. Note that all rabbit IgGs capable of protecting against lethal endotoxemia cross-reacted with P8 peptide.
Epitope mapping of SAA-neutralizing antibodies. To test the possibility that antibodies or peptides antagonists targeting different SAA domains may divergently affect the outcomes of LSI, SAA-specific antibodies were generated, and the epitopes of these polyclonal IgGs determined using a peptide library (18-mer offset by 6) spanning the entire SAA protein (FIG. 5A). […] Following repetitive immunizations, the titers of anti-SAA IgGs were dramatically elevated in most rabbits (e.g., R1 and R3).

HMGB1 release = HMGB1 release in vitro by inflammatory mediators (data not shown); type: cell-based

Substance | effect of pre-incubation with peptide on anti-SAA-IgG-mediated inhibition of SAA-induced HMGB1 release (SAA) | inhibition of SAA-induced HMGB1 release (SAA) | induction of HMGB1 release in vitro (HMGB1 release)
REANYIGSDKYFHARGNY (listed as Homo sapiens) [Clone P8, SAA peptide (18-mer) corresponding to residues 25-42] | impaired | dose-dependently inhibited | 
RSFFSFLGEAFDGARDMW (listed as Homo sapiens) [Clone P4, SAA peptide corresponding to residues 1-18] |  | dose-dependently inhibited; also recorded: inhibited SAA-induced HMGB1 release | 
IL-8: inflammatory mediator, sepsis surrogate marker |  |  | unable to induce HMGB1 release
IL-6: inflammatory mediator, sepsis surrogate marker |  |  | unable to induce HMGB1 release
EGF: cytoprotective peptide (NSDSECPLSHDGYCLHDGVCMYIEALDKYACNCVVGYIGERCQYRDLKWWELR; Epidermal growth factor; UniProt P01133 971-1023, looked up) |  |  | unable to induce HMGB1 release

Reference: patent US10183971B2, “SAA-domain-specific antibodies and peptide antagonists and use thereof to treat inflammatory diseases” (The Feinstein Institute For Medical Research, priority 2013, dated 2019)
